Measurements as given in the NIST ThermoML archive (doi:10.1021/acs.jced.9b00415).

Assay: xn = mol fraction of the nth substance listed
Details: 102 kPa, Liquid; for viscosity: Concentric cylinders viscometry; for mass density: Vibrating tube method

CCCCn1cc[n+](C)c1.CS(=O)(=O)[O-] [1-butyl-3-methylimidazolium methanesulfonate] + CCCCn1cc[n+](C)c1.O=[N+]([O-])[O-]
Details	mass density [kg/m3]	viscosity [mPa·s]
303.15 K, x2 = 0.9	1154.3	180.1
308.15 K, x2 = 0.9	1151.1	135.4
313.15 K, x2 = 0.8	1149.3	113.6
313.15 K, x2 = 0.9	1147.9	104
318.15 K, x2 = 0.6	1150.5	103
318.15 K, x2 = 0.7	1148.5	97.85
318.15 K, x2 = 0.8	1146.2	88.38
318.15 K, x2 = 0.9	1144.7	81.49
323.15 K, x2 = 0.6	1147.3	80.7
323.15 K, x2 = 0.7	1145.4	77.05
323.15 K, x2 = 0.8	1143	70.03
323.15 K, x2 = 0.9	1141.6	64.96
328.15 K, x2 = 0.4	1146.9	70.76
328.15 K, x2 = 0.5	1145.4	66.57
328.15 K, x2 = 0.6	1144.1	64.37
328.15 K, x2 = 0.7	1142.2	61.72
328.15 K, x2 = 0.8	1139.9	56.42
328.15 K, x2 = 0.9	1138.5	52.61
333.15 K, x2 = 0.3	1144.9	59.13
333.15 K, x2 = 0.4	1143.8	56.85
333.15 K, x2 = 0.5	1142.2	53.7
333.15 K, x2 = 0.6	1141	52.18
333.15 K, x2 = 0.7	1139.1	50.22
333.15 K, x2 = 0.8	1136.8	46.14
333.15 K, x2 = 0.9	1135.4	43.23
338.15 K, x2 = 0.3	1141.8	48.04
338.15 K, x2 = 0.4	1140.6	46.37
338.15 K, x2 = 0.5	1139.1	43.99
338.15 K, x2 = 0.6	1137.9	42.9
338.15 K, x2 = 0.7	1136	41.44
338.15 K, x2 = 0.8	1133.7	38.25
338.15 K, x2 = 0.9	1132.3	35.99
343.15 K, x2 = 0.3	1138.6	39.58
343.15 K, x2 = 0.4	1137.5	38.34
343.15 K, x2 = 0.5	1136	36.52
343.15 K, x2 = 0.6	1134.8	35.74
343.15 K, x2 = 0.7	1132.9	34.63
343.15 K, x2 = 0.8	1130.6	32.11
343.15 K, x2 = 0.9	1129.3	30.32
348.15 K, x2 = 0.1	1138.3	34.98
348.15 K, x2 = 0.2	1136.8	34.5
348.15 K, x2 = 0.3	1135.5	33.03
348.15 K, x2 = 0.4	1134.4	32.1
348.15 K, x2 = 0.5	1132.9	30.69
348.15 K, x2 = 0.6	1131.7	30.13
348.15 K, x2 = 0.7	1129.9	29.28
348.15 K, x2 = 0.8	1127.6	27.25
348.15 K, x2 = 0.9	1126.2	25.81
353.15 K, x2 = 0.1	1135.2	29.38
353.15 K, x2 = 0.2	1133.6	29.04
353.15 K, x2 = 0.3	1132.4	27.88
353.15 K, x2 = 0.4	1131.3	27.17
353.15 K, x2 = 0.5	1129.8	26.08
353.15 K, x2 = 0.6	1128.6	25.68
353.15 K, x2 = 0.7	1126.8	25.02
353.15 K, x2 = 0.8	1124.5	23.36
353.15 K, x2 = 0.9	1123.2	22.2
358.15 K, x2 = 0.1	1132	24.94
358.15 K, x2 = 0.2	1130.5	24.71
358.15 K, x2 = 0.3	1129.3	23.79
358.15 K, x2 = 0.4	1128.2	23.23
358.15 K, x2 = 0.5	1126.8	22.38
358.15 K, x2 = 0.6	1125.6	22.09
358.15 K, x2 = 0.7	1123.8	21.57
358.15 K, x2 = 0.8	1121.5	20.21
358.15 K, x2 = 0.9	1120.2	19.26
363.15 K, x2 = 0.1	1128.9	21.39
363.15 K, x2 = 0.2	1127.4	21.27
363.15 K, x2 = 0.3	1126.2	20.51
363.15 K, x2 = 0.4	1125.1	20.04
363.15 K, x2 = 0.5	1123.7	19.36
363.15 K, x2 = 0.6	1122.5	19.18
363.15 K, x2 = 0.7	1120.7	18.76
363.15 K, x2 = 0.8	1118.5	17.63
363.15 K, x2 = 0.9	1117.2	16.86

CCCCn1cc[n+](C)c1.CS(=O)(=O)[O-] [1-butyl-3-methylimidazolium methanesulfonate] + CCCCn1cc[n+](C)c1.[Cl-]
Details	mass density [kg/m3]	viscosity [mPa·s]
323.15 K, x1 = 0.3	1098.9	388.2
323.15 K, x1 = 0.4	1106.3	365.5
323.15 K, x1 = 0.5	1116.6	267.1
328.15 K, x1 = 0.1	1076.7	490.5
328.15 K, x1 = 0.2	1086.1	428.3
328.15 K, x1 = 0.3	1096.1	278.2
328.15 K, x1 = 0.4	1103.4	261.8
328.15 K, x1 = 0.5	1113.7	195.6
333.15 K, x1 = 0.1	1074	346.3
333.15 K, x1 = 0.2	1083.4	304.6
333.15 K, x1 = 0.3	1093.3	204.2
333.15 K, x1 = 0.4	1100.6	192.2
333.15 K, x1 = 0.5	1110.9	146.5
333.15 K, x1 = 0.6	1119.1	128
338.15 K, x1 = 0.1	1071.4	250.7
338.15 K, x1 = 0.2	1080.7	222
338.15 K, x1 = 0.3	1090.6	153.2
338.15 K, x1 = 0.4	1097.9	144.3
338.15 K, x1 = 0.5	1108.1	112.1
338.15 K, x1 = 0.6	1116.3	98.76
338.15 K, x1 = 0.7	1124.3	82.97
343.15 K, x1 = 0.1	1068.7	185.6
343.15 K, x1 = 0.2	1078	165.4
343.15 K, x1 = 0.3	1087.9	117.2
343.15 K, x1 = 0.4	1095.2	110.5
343.15 K, x1 = 0.5	1105.3	87.31
343.15 K, x1 = 0.6	1113.5	77.62
343.15 K, x1 = 0.7	1121.5	65.89
343.15 K, x1 = 0.8	1129.7	56.84
348.15 K, x1 = 0.1	1066.1	140.3
348.15 K, x1 = 0.2	1075.4	125.8
348.15 K, x1 = 0.3	1085.2	91.36
348.15 K, x1 = 0.4	1092.5	86.21
348.15 K, x1 = 0.5	1102.6	69.19
348.15 K, x1 = 0.6	1110.7	62.01
348.15 K, x1 = 0.7	1118.6	53.15
348.15 K, x1 = 0.8	1126.8	46.31
348.15 K, x1 = 0.9	1134.4	39.65
353.15 K, x1 = 0.1	1063.5	108.1
353.15 K, x1 = 0.2	1072.8	97.5
353.15 K, x1 = 0.3	1082.5	72.39
353.15 K, x1 = 0.4	1089.7	68.4
353.15 K, x1 = 0.5	1099.8	55.7
353.15 K, x1 = 0.6	1107.9	50.28
353.15 K, x1 = 0.7	1115.7	43.48
353.15 K, x1 = 0.8	1123.9	38.24
353.15 K, x1 = 0.9	1131.4	33.04
358.15 K, x1 = 0.1	1060.9	84.67
358.15 K, x1 = 0.2	1070.1	76.85
358.15 K, x1 = 0.3	1079.8	58.23
358.15 K, x1 = 0.4	1086.9	55.11
358.15 K, x1 = 0.5	1097	45.47
358.15 K, x1 = 0.6	1105	41.33
358.15 K, x1 = 0.7	1112.8	36.03
358.15 K, x1 = 0.8	1120.9	31.96
358.15 K, x1 = 0.9	1128.4	27.85
363.15 K, x1 = 0.1	1058.2	67.42
363.15 K, x1 = 0.2	1067.3	61.54
363.15 K, x1 = 0.3	1077	47.51
363.15 K, x1 = 0.4	1084.1	45.04
363.15 K, x1 = 0.5	1094.1	37.62
363.15 K, x1 = 0.6	1102.1	34.41
363.15 K, x1 = 0.7	1109.9	30.22
363.15 K, x1 = 0.8	1117.9	27.02
363.15 K, x1 = 0.9	1125.3	23.72

CCCCn1cc[n+](C)c1.O=[N+]([O-])[O-] [1-butyl-3-methylimidazolium nitrate] + CCCCn1cc[n+](C)c1.[Cl-]
Details	mass density [kg/m3]	viscosity [mPa·s]
298.15 K, x1 = 0.8	1139.9	373.6
303.15 K, x1 = 0.8	1136.8	266.4
308.15 K, x1 = 0.8	1133.7	194.9
313.15 K, x1 = 0.5	1109.6	365.1
313.15 K, x1 = 0.6	1116.9	275.4
313.15 K, x1 = 0.8	1130.6	146
318.15 K, x1 = 0.2	–	721.3
318.15 K, x1 = 0.5	1106.6	262.7
318.15 K, x1 = 0.6	1113.9	201.5
318.15 K, x1 = 0.8	1127.6	111.7
323.15 K, x1 = 0.2	–	495.6
323.15 K, x1 = 0.4	1097.9	259.8
323.15 K, x1 = 0.5	1103.7	193.7
323.15 K, x1 = 0.6	1110.9	150.8
323.15 K, x1 = 0.8	1124.6	87.1
328.15 K, x1 = 0.2	1080.2	349.9
328.15 K, x1 = 0.4	1095	191.3
328.15 K, x1 = 0.5	1100.8	145.9
328.15 K, x1 = 0.6	1107.9	115.2
328.15 K, x1 = 0.8	1121.6	69.09
333.15 K, x1 = 0.1	1070.3	378.4
333.15 K, x1 = 0.2	1077.3	253.4
333.15 K, x1 = 0.4	1092	144
333.15 K, x1 = 0.5	1097.9	112
333.15 K, x1 = 0.6	1104.9	89.66
333.15 K, x1 = 0.8	1118.6	55.68
338.15 K, x1 = 0.1	1067.5	271.8
338.15 K, x1 = 0.2	1074.4	187.6
338.15 K, x1 = 0.4	1089.1	110.6
338.15 K, x1 = 0.5	1095	87.65
338.15 K, x1 = 0.6	1101.9	71.02
338.15 K, x1 = 0.8	1115.7	45.53
343.15 K, x1 = 0.1	1064.8	199.9
343.15 K, x1 = 0.2	1071.6	141.9
343.15 K, x1 = 0.4	1086.2	86.47
343.15 K, x1 = 0.5	1092.1	69.7
343.15 K, x1 = 0.6	1099	57.14
343.15 K, x1 = 0.8	1112.7	37.72
348.15 K, x1 = 0.1	1062.1	150.1
348.15 K, x1 = 0.2	1068.8	109.3
348.15 K, x1 = 0.4	1083.3	68.73
348.15 K, x1 = 0.5	1089.2	56.25
348.15 K, x1 = 0.6	1096.1	46.63
348.15 K, x1 = 0.8	1109.7	31.62
353.15 K, x1 = 0.1	1059.3	115
353.15 K, x1 = 0.2	1065.9	85.68
353.15 K, x1 = 0.4	1080.5	55.46
353.15 K, x1 = 0.5	1086.4	46.03
353.15 K, x1 = 0.6	1093.2	38.55
353.15 K, x1 = 0.8	1106.8	26.81
358.15 K, x1 = 0.1	1056.6	89.62
358.15 K, x1 = 0.2	1063.1	68.25
358.15 K, x1 = 0.4	1077.6	45.37
358.15 K, x1 = 0.5	1083.5	38.16
358.15 K, x1 = 0.6	1090.3	32.27
358.15 K, x1 = 0.8	1103.8	22.96
363.15 K, x1 = 0.1	1053.8	71.03
363.15 K, x1 = 0.2	1060.4	55.17
363.15 K, x1 = 0.4	1074.8	37.6
363.15 K, x1 = 0.5	1080.6	32.02
363.15 K, x1 = 0.6	1087.4	27.32
363.15 K, x1 = 0.8	1100.9	19.87
